Reference: the supplement of paper PMC10702517
± gives the standard deviation.

assay: chemical recovery by SPE of plasma after PDMS sampling; higher = better extraction; conditions: pooled human plasma; extraction method: HLB SPE of plasma after PES; equilibration time (d): 6
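For chemical recovery by SPE of plasma after PDMS sampling in this document: over 400 spiked chemicals quantified by LC-HRMS or GC-HRMS via internal standard calibration, recovery relative to spike mix added to unspiked plasma extract to correct matrix effects.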
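For chemical recovery from spiked human plasma in this document: plasma spiked with over 400 chemicals, quantified by LC-HRMS and GC-HRMS via internal standard calibration against matrix-matched unspiked plasma extracts plus spike mix.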

In order of rising “chemical recovery by SPE of plasma” value:
1. CN(C)CCC=C1c2ccccc2CCc2ccccc21 [Amitriptyline]  0.0767 ± 0.067%
2. C[Si](Cn1cncn1)(c1ccc(F)cc1)c1ccc(F)cc1 [Flusilazole]  0.136 ± 0.0093%
3. Clc1ccc(Cl)c(-c2ccccc2Cl)c1 [PCB18]  0.249 ± 0.43%
4. CC(C)N(C(=O)COc1nnc(C(F)(F)F)s1)c1ccc(F)cc1 [Flufenacet]  0.269 ± 0.043%
5. CC(C)(C)C(=O)C(Oc1ccc(Cl)cc1)n1ccnc1 (stereo not given) [Climbazole]  0.487 ± 0.043%
6. CN(C)c1ccc(C(=O)c2ccc(N(C)C)cc2)cc1 [Michler's ketone]  0.502 ± 0.091%
7. CCCN(CCOc1c(Cl)cc(Cl)cc1Cl)C(=O)NC=O  0.703 ± 1.2%
8. c1ccc2sc(N3CCOCC3)nc2c1 [2(4-morpholinyl)benzothiazole]  0.805 ± 0.046%
9. CCOC1Oc2ccc(OS(C)(=O)=O)cc2C1(C)C (stereo not given) [Ethofumesate]  0.896 ± 1.6%
10. O=C(/C=C/C=C/c1ccc2c(c1)OCO2)N1CCCCC1 [Piperine]  0.965 ± 0.074%
11. CCOC(=O)c1ccc(N(C)C)cc1 [Ethyl 4-(dimethylamino)benzoate]  1.11 ± 0.13%
12. C[C@]12CCC(=O)C=C1CC[C@@H]1[C@@H]2CC[C@]2(C)C(=O)CC[C@@H]12 [4-Androstene-3,17-dione]  1.36 ± 1.8%
13. Clc1ccc(Cl)c(-c2cccc(Cl)c2Cl)c1 [PCB44]  1.42 ± 0.29%
14. Clc1ccc(-c2cc(Cl)c(Cl)cc2Cl)cc1Cl [PCB118]  1.71 ± 0.54%
15. O=P(OC(CCl)CCl)(OC(CCl)CCl)OC(CCl)CCl [TDCPP]  2.14 ± 3.7%
16. CCNc1ccc2c(C)cc(=O)oc2c1 [7-(Ethylamino)-4-methylcoumarin]  2.87 ± 0.15%
17. O=S(=O)(O)c1ccccc1 [Benzenesulfonic acid]  2.93 ± 1.1%
18. C#C[C@]1(O)CC[C@H]2[C@@H]3CCC4=CC(=O)CC[C@@H]4[C@H]3CC[C@@]21C [Norethindrone]  3.48 ± 6%
19. c1cc2ccc3cccc4ccc(c1)c2c34 [Pyrene]  3.59 ± 0.37%
20. Nc1cn[nH]c(=O)c1Cl [Desphenyl chloridazon]  3.77 ± 0.81%
21. CN1C(=O)CN=C(c2ccccc2)c2cc(Cl)ccc21 [Diazepam]  4.56 ± 0.4%
22. c1ccc(Cc2ccccc2)cc1 [Diphenylmethane]  5.98 ± 9.4%
23. O=S(=O)(c1ccccc1)c1ccccc1 [Diphenylsulfone]  7.53 ± 2.3%
24. OC(c1ccc(Cl)cc1)(c1ccc(Cl)cc1)C(Cl)(Cl)Cl [Dicofol]  15.2 ± 3.4%
25. N#Cc1nn(-c2c(Cl)cc(C(F)(F)F)cc2Cl)c(N)c1[S+]([O-])C(F)(F)F (stereo not given) [Fipronil]  15.4 ± 2.5%
26. CCOC(=O)CC(O)(CC(=O)OCC)C(=O)OCC [Triethylcitrate]  17 ± 1.2%
27. CCCC1O[C@@H]2C[C@H]3[C@@H]4CCC5=CC(=O)C=C[C@]5(C)[C@H]4[C@@H](O)C[C@]3(C)[C@]2(C(=O)CO)O1 (stereo not given in full) [Budesonide]  25 ± 2.6%
28. CCc1cccc(C)c1N(C(=O)CS(=O)(=O)O)[C@@H](C)C(=O)O [Metolachlor-NOA 413-173]  34.7 ± 5.3%
29. CN(Cc1nc2c(N)nc(N)nc2nc1O)c1ccc(C(=O)N[C@@H](CCC(=O)O)C(=O)O)cc1 [7-Hydroxymethotrexate]  40.3 ± 0.48%
30. O=c1c2ccccc2[nH]c2ccccc12 [Acridone]  44.9 ± 4.3%
31. COCCN(C(=O)CS(=O)(=O)O)c1c(C)cccc1C [Dimethachlor ESA]  48 ± 4.5%
32. Nc1cnn(-c2ccccc2)c(=O)c1Cl [Chloridazon]  51.8 ± 4.5%
33. CS(=O)(=O)c1ccc(C(=O)C2C(=O)CCCC2=O)c(Cl)c1 [Sulcotrione]  54.5 ± 2%
34. O=C(O)CCC(=O)c1ccc(F)cc1 [4-Fluorobenzoylpropionic acid]  56.6 ± 5.1%

assay: chemical recovery from spiked human plasma; higher = better extraction; conditions: pooled human plasma; extraction method: PES+SPE (3 d PDMS equilibration then HLB SPE)

In order of falling chemical recovery:
1. CC(C)(C)C(=O)C(Oc1ccc(Cl)cc1)n1ccnc1 (stereo not given) [Climbazole]  66.5 ± 6.8%
2. CN1C(=O)CN=C(c2ccccc2)c2cc(Cl)ccc21 [Diazepam]  66.5 ± 10%
3. O=c1c2ccccc2[nH]c2ccccc12 [Acridone]  62.8 ± 6%
4. CS(=O)(=O)c1ccc(C(=O)C2C(=O)CCCC2=O)c(Cl)c1 [Sulcotrione]  57 ± 5.9%
5. NC(=O)Nc1ccc(Cl)c(Cl)c1 [3,4-Dichlorophenylurea]  56.4 ± 2.7%
6. Brc1ccc(Oc2cc(Br)c(Br)cc2Br)c(Br)c1 [BDE99]  53.9 ± 4.6%
7. O=C(O)CCC(=O)c1ccc(F)cc1 [4-Fluorobenzoylpropionic acid]  47.1 ± 4.1%
8. O=P1(NCCCl)OCCCN1CCCl (stereo not given) [Ifosfamide]  46.6 ± 3.5%
9. C[Si](Cn1cncn1)(c1ccc(F)cc1)c1ccc(F)cc1 [Flusilazole]  45.1 ± 4.8%
10. Nc1cnn(-c2ccccc2)c(=O)c1Cl [Chloridazon]  44.6 ± 2.8%
11. Clc1ccc(Cl)c(-c2cccc(Cl)c2Cl)c1 [PCB44]  44 ± 11%
12. CCOC1Oc2ccc(OS(C)(=O)=O)cc2C1(C)C (stereo not given) [Ethofumesate]  43.9 ± 5.2%
13. CCNc1ccc2c(C)cc(=O)oc2c1 [7-(Ethylamino)-4-methylcoumarin]  42.9 ± 6.9%
14. c1ccc2sc(N3CCOCC3)nc2c1 [2(4-morpholinyl)benzothiazole]  41.7 ± 6.4%
15. Clc1cc(Cl)c(-c2cc(Cl)c(Cl)c(Cl)c2Cl)cc1Cl [PCB180]  40.2 ± 2.1%
16. CCOC(=O)CC(O)(CC(=O)OCC)C(=O)OCC [Triethylcitrate]  32.4 ± 8.6%
17. CCOC(=O)c1ccc(N(C)C)cc1 [Ethyl 4-(dimethylamino)benzoate]  25.6 ± 9.8%
18. Nc1nc(N)nc(NC2CC2)n1 [Cyromazine]  3.13 ± 0.61%
19. O=S(=O)(O)c1ccccc1 [Benzenesulfonic acid]  1.83 ± 0.28%
20. CN(C)CCC=C1c2ccccc2CCc2ccccc21 [Amitriptyline]  0.236 ± 0.082%

same assay, conditions: pooled human plasma; extraction method: SPE only (HLB 96-well)

In order of rising chemical recovery:
1. Clc1ccc2ccccc2c1 [2-Chloronaphthalene]  0.106 ± 0.18%
2. OC(c1ccc(Cl)cc1)(c1ccc(Cl)cc1)C(Cl)(Cl)Cl [Dicofol]  0.108 ± 0.017%
3. O=S(=O)(c1ccccc1)c1ccccc1 [Diphenylsulfone]  0.293 ± 0.035%
4. Clc1ccc(-c2cc(Cl)c(Cl)cc2Cl)cc1Cl [PCB118]  0.333 ± 0.1%
5. ClC1=C(Cl)[C@]2(Cl)[C@@H]3[C@@H]4C[C@@H]([C@H]5O[C@@H]45)[C@@H]3[C@@]1(Cl)C2(Cl)Cl [Dieldrin]  0.809 ± 0.21%
6. Clc1cc(Cl)c(-c2cc(Cl)c(Cl)c(Cl)c2Cl)cc1Cl [PCB180]  1.45 ± 0.68%
7. Brc1ccc(Oc2cc(Br)c(Br)cc2Br)c(Br)c1 [BDE99]  1.63 ± 0.65%
8. Nc1nc(N)nc(NC2CC2)n1 [Cyromazine]  2.36 ± 2.5%
9. O=S(=O)(O)c1ccccc1 [Benzenesulfonic acid]  2.56 ± 1.3%
10. CCOC(=O)C(C)(C)Oc1ccc(Cl)cc1 [Clofibrate]  3.33 ± 1.6%
11. Clc1ccc(Cl)c(-c2cccc(Cl)c2Cl)c1 [PCB44]  3.94 ± 0.74%
12. c1cc2ccc3cccc4ccc(c1)c2c34 [Pyrene]  19.5 ± 5.1%
13. CS(=O)(=O)c1ccccc1 [Methylphenylsulfone]  19.9 ± 3.2%
14. c1ccc(Cc2ccccc2)cc1 [Diphenylmethane]  20.4 ± 5.3%
15. O=C1Nc2ccc(Cl)cc2C(C#CC2CC2)(C(F)(F)F)O1 (stereo not given) [Efavirenz]  27.1 ± 5.3%
16. N#Cc1nn(-c2c(Cl)cc(C(F)(F)F)cc2Cl)c(N)c1[S+]([O-])C(F)(F)F (stereo not given) [Fipronil]  31.6 ± 8.2%
17. CN(C)c1ccc(C(=O)c2ccc(N(C)C)cc2)cc1 [Michler's ketone]  34.4 ± 1.9%
18. CCc1cccc(C)c1N(C(=O)CS(=O)(=O)O)[C@@H](C)C(=O)O [Metolachlor-NOA 413-173]  35.6 ± 3.7%
19. Nc1cnn(-c2ccccc2)c(=O)c1Cl [Chloridazon]  37.3 ± 3%
20. CC(C)(C)C(=O)C(Oc1ccc(Cl)cc1)n1ccnc1 (stereo not given) [Climbazole]  37.7 ± 2.8%
21. CCOC(=O)CC(O)(CC(=O)OCC)C(=O)OCC [Triethylcitrate]  38.1 ± 0.71%
22. CCOC(=O)c1ccc(N(C)C)cc1 [Ethyl 4-(dimethylamino)benzoate]  38.6 ± 1.8%
23. O=P1(NCCCl)OCCCN1CCCl (stereo not given) [Ifosfamide]  39.4 ± 3.3%
24. CN(C)CCC=C1c2ccccc2CCc2ccccc21 [Amitriptyline]  39.4 ± 10%
25. C[Si](Cn1cncn1)(c1ccc(F)cc1)c1ccc(F)cc1 [Flusilazole]  39.4 ± 2.9%
26. c1ccc2sc(N3CCOCC3)nc2c1 [2(4-morpholinyl)benzothiazole]  39.6 ± 2.1%
27. O=C(/C=C/C=C/c1ccc2c(c1)OCO2)N1CCCCC1 [Piperine]  40.7 ± 2.7%
28. O=C(O)CCC(=O)c1ccc(F)cc1 [4-Fluorobenzoylpropionic acid]  42.5 ± 2%
29. NC(=O)Nc1ccc(Cl)c(Cl)c1 [3,4-Dichlorophenylurea]  43.9 ± 3.2%
30. CCNc1ccc2c(C)cc(=O)oc2c1 [7-(Ethylamino)-4-methylcoumarin]  45.6 ± 5.5%
31. O=P(OC(CCl)CCl)(OC(CCl)CCl)OC(CCl)CCl [TDCPP]  46.5 ± 0.97%
32. O=c1c2ccccc2[nH]c2ccccc12 [Acridone]  47.2 ± 3.6%
33. CS(=O)(=O)c1ccc(C(=O)C2C(=O)CCCC2=O)c(Cl)c1 [Sulcotrione]  47.6 ± 3.3%
34. CCOC1Oc2ccc(OS(C)(=O)=O)cc2C1(C)C (stereo not given) [Ethofumesate]  48.8 ± 1.2%
35. CN1C(=O)CN=C(c2ccccc2)c2cc(Cl)ccc21 [Diazepam]  56.2 ± 2.7%
36. Fc1ccc(Oc2ccnc3cc(Cl)cc(Cl)c23)cc1 [Quinoxyfen]  57.2 ± 16%

same assay, conditions: pooled human plasma; extraction method: SPE only (HLB 96-well), PES comparison experiment

In order of falling chemical recovery:
1. O=P1(NCCCl)OCCCN1CCCl (stereo not given) [Ifosfamide]  55.9 ± 6.7%
2. C[C@]12CCC(=O)C=C1CC[C@@H]1[C@@H]2CC[C@]2(C)C(=O)CC[C@@H]12 [4-Androstene-3,17-dione]  49.8 ± 8.7%
3. NC(=O)Nc1ccc(Cl)c(Cl)c1 [3,4-Dichlorophenylurea]  49.3 ± 6.2%
4. Fc1ccc([C@]2(Cn3cncn3)O[C@H]2c2ccccc2Cl)cc1 (racemic) [Epoxiconazole]  47.4 ± 6.8%
5. OC(Cc1ccccc1Cl)(Cn1cncn1)C1(Cl)CC1 (stereo not given) [Prothioconazole-desthio]  47 ± 6.8%
6. CC1(C)CCC(Cc2ccc(Cl)cc2)C1(O)Cn1cncn1 (stereo not given) [Metconazole]  46.3 ± 8.6%
7. COC(=O)[C@H](c1ccccc1Cl)N1CCc2sccc2C1 [Clopidogrel]  39.3 ± 7.1%
8. O=C1Nc2ccc(Cl)cc2C(C#CC2CC2)(C(F)(F)F)O1 (stereo not given) [Efavirenz]  38.7 ± 7.3%
9. Fc1ccc(Oc2ccnc3cc(Cl)cc(Cl)c23)cc1 [Quinoxyfen]  31.6 ± 5.7%
10. c1cc2ccc3cccc4ccc(c1)c2c34 [Pyrene]  19.4 ± 2.8%
